# Entries after “also recorded” stand apart in the source; their conditions may differ.
# How the values were obtained:
# [1] = biological target: T1, recombinant RIG-I (Homo sapiens, UniProt O95786); test: RIG-I ATPase assay (ATP hydrolysis); assay type: biochemical; conditions: RNA added to recombinant RIG-I, equimolar amounts
# T1 sequence (O95786 1-925): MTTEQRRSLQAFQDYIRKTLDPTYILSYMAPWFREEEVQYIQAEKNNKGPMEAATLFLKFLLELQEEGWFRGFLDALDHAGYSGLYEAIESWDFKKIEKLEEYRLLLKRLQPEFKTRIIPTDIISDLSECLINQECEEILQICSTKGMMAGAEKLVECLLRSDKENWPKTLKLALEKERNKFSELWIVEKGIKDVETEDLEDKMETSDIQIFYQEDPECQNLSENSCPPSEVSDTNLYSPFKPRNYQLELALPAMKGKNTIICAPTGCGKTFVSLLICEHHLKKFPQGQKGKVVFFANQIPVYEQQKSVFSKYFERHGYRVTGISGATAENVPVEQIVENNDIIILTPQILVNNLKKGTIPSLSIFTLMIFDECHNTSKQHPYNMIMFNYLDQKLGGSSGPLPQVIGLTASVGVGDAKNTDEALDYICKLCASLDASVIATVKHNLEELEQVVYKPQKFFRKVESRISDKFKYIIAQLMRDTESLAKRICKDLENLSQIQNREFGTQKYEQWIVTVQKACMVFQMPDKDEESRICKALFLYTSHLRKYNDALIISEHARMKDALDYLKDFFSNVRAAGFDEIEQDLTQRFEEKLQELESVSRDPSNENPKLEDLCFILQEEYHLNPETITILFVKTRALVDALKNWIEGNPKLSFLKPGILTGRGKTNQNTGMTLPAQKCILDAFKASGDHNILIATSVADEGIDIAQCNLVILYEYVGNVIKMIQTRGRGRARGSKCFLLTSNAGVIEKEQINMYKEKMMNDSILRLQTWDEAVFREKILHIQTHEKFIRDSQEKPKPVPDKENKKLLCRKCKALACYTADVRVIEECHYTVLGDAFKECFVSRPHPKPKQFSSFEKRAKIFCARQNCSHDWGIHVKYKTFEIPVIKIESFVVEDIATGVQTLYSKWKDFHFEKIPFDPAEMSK
# Experimental: RIG-I ATPase Assays. RIG-I ATPase assays were performed as previously described (Devarkar et al. (2016) Proc. Natl. Acad. Sci. 113, 596-601). In brief, increasing amounts of RNA (10-60 nM) were added to a constant quantity of RIG-I (5 nM) in the presence of 1 mM ATP. ATP hydrolysis was measured with the EnzChek Phosphate Assay Kit (ThermoFisher) after 60-90 minutes at 37° C. ATP hydrolysis was then measured by absorbance of 360 nm compared to background. A 19-mer 5′triphosphate dsRNA (Invivogen) and DVG396 were used as positive controls and a 19-mer 5′OH dsRNA (Invivogen) and an in vitro transcribed 300 bp ssRNA stretch of GAPDH (GAPDH300) were used as negative controls.
# [2] = system: B16-F10 tumor cells; test: B16-F10/MEF co-implantation, tumor immune populations by flow cytometry; assay type: in vivo, C57BL/6 mice; conditions: for myeloid infiltration (macrophages, MDSCs) into the tumor microenvironment: tumors harvested 13 days later
# Experimental: Mice were implanted with tumors as described FIGS. 25A-25B. Tumors were harvested 13 days later and assessed for infiltration of macrophages or myeloid derived suppressor cells (MDSCs). Macrophages are considered Lin−, F4/80+, and CD11b+ cells. MDSCs are considered Lin−, F4/80−, CD11c−, CD11b+, and Ly6C+ cells. Tumors were treated with anti-CTLA4 blocking antibody (FIG. 26D) as described in FIGS. 25A and 25B, and tumors were harvested at d15 to measure M2 polarization of macrophages as marked by CD206.
# Furthermore, mice were implanted with the same tumors and subsequently treated with the CSF1R inhibitor BLZ945. Polarization of macrophages and frequency of CD103+DCs were tested.
# In addition, mice were implanted with tumors and treated with anti-CTLA4+/−CSF1Ri BLZ945. Tumors were harvested 13 days later and immune populations were assessed using an unbiased clustering of flow cytometry data.
# Mice were implanted with B16-F10 tumor cells mixed 1:1 with MEFs or MEFs co-expressing SRP9/14 (FIG. 35B). Tumors were harvested 2 weeks post-injection and analyzed for immune cell populations. Unshielded RN7SL1 increased the frequency of dendritic cells, the percentage of CD103+ dendritic cells, the percentage of CD69+CD8+ T cells, and the percentage of PD1+CD8+ T cells in tumors (FIG. 35C). […] Without wishing to be bound by theory, a CSF1R inhibitor blocks M2 polarization and may synergize with unshielded RN7SL1.
# [3] = tumors harvested 2 weeks post-injection
substance,measurement,setting,value
"RN7SL1: Human RN7SL1 (7SL, srpRNA) RNA, 5'ppp, in vitro transcribed or secreted unshielded in exosomes; SEQ ID NO: 2",RIG-I ATP helicase activity as measured by ATP hydrolysis,[1],directly binds recombinant RIG-I; also recorded: comparable to an equimolar amount of Sendai virus-derived RNA (DVG396)
same,T cell activation,[2]; dependent on MyD88,enhanced T cell activation
same,percentage of CD69+CD8+ T cells,[2]; [3],increased
same,percentage of CD103+ dendritic cells,[2]; [3],increased
same,percentage of PD1+CD8+ T cells,[2]; [3],increased
same,percentages of macrophages and MDSCs in CD45+ cells,[2]; [3],also increased
same,frequency of dendritic cells in tumors,"[2]; tumors harvested 2 weeks post-injection, listed as Unshielded RN7SL1",increased
same,frequency of dendritic cells in tumors,"[2]; tumors harvested 2 weeks post-injection, listed as unshielded 7SL1",increased the frequency of DCs in vivo
same,"myeloid infiltration (macrophages, MDSCs) into the tumor microenvironment",[2],triggered the infiltration of macrophages and MDSCs into the tumor microenvironment
same,"myeloid infiltration (macrophages, MDSCs) into the tumor microenvironment",[2]; listed as unshielded 7SL,drives myeloid infiltration into the tumor microenvironment
